According to ChEMBL document CHEMBL1121849, “Synthetic antagonists of in vivo antidiuretic and vasopressor responses to arginine-vasopressin” (J Med Chem, 1981):
Starred links: 1 amine or outer side, 2 acyl side, 3 side chain; linkers in the order of their positions; H or OH if unused. Positions of bridges follow the written chain, without caps; N, C: chain ends. Non-standard residues stand in square brackets, D forms with d. Residues, ends and D or L forms follow the SMILES beside them. *: point of attachment. X1 = O=C(CC1(S[*:2])CCCCC1)[*:1]; iPr = CC(C)*

Experiments:
Rattus norvegicus [1] = assay: Tested in vivo for antidiuretic potency injected intraperitoneally in rats under ethanol anesthesia; assay type: ADME, organism-based, Urine; settings: ip
Rattus norvegicus [2] = assay: In vivo anti-vasopressor antagonistic activity expressed as negative logarithm of the effective dose divided by the estimated volume of distribution (67 mL/kg).; assay type: ADME, organism-based; settings: read-out: pA2 (converted)
[3] = In vivo antidiuretic antagonistic activity expressed as negative logarithm of the effective dose divided by the estimated volume of distribution (67 mL/kg).; assay type: ADME, organism-based; settings: Urine; read-out: pA2 (converted)
Rattus norvegicus [4] = assay: Tested in vivo for anti-vasopressor potency injected intraperitoneally in phenoxybenzamine-treated rats under urethane anesthesia; assay type: functional

| Compound | ED (Rattus norvegicus [1]) | Kb (Rattus norvegicus [2]) | Kb [3] | ED (Rattus norvegicus [4]) |
| --- | --- | --- | --- | --- |
| CCCOc1ccc(C[C@@H]2NC(=O)CC3(CCCCC3)SSC[C@@H](C(=O)N3CCC[C@H]3C(=O)N[C@@H](CCCN=C(N)N)C(=O)NCC(N)=O)NC(=O)[C@H](CC(N)=O)NC(=O)[C@H](C(C)C)NC(=O)[C@H](Cc3ccccc3)NC2=O)cc1 [listing 1 of 2 here] | 3.5 nM/kg | 6.03 nM | 51.3 nM |  |
| CCCOc1ccc(C[C@@H]2NC(=O)CC3(CCCCC3)SSC[C@@H](C(=O)N3CCC[C@H]3C(=O)N[C@@H](CCCN=C(N)N)C(=O)NCC(N)=O)NC(=O)[C@H](CC(N)=O)NC(=O)[C@H](C(C)C)NC(=O)[C@H](Cc3ccccc3)NC2=O)cc1 [listing 2 of 2 here] |  |  |  | 0.4 nM/kg |
| CCCOc1ccc(C[C@@H]2NC(=O)CC3(CCCCC3)SSC[C@@H](C(=O)N3CCC[C@H]3C(=O)N[C@H](CCCN=C(N)N)C(=O)NCC(N)=O)NC(=O)[C@H](CC(N)=O)NC(=O)[C@H](C(C)C)NC(=O)[C@H](Cc3ccccc3)NC2=O)cc1 [listing 1 of 2 here] | 14 nM/kg | 13.8 nM | 214 nM |  |
| CCCOc1ccc(C[C@@H]2NC(=O)CC3(CCCCC3)SSC[C@@H](C(=O)N3CCC[C@H]3C(=O)N[C@H](CCCN=C(N)N)C(=O)NCC(N)=O)NC(=O)[C@H](CC(N)=O)NC(=O)[C@H](C(C)C)NC(=O)[C@H](Cc3ccccc3)NC2=O)cc1 [listing 2 of 2 here] |  |  |  | 1.1 nM/kg |
| CCOc1ccc(C[C@@H]2NC(=O)CC3(CCCCC3)SSC[C@@H](C(=O)N3CCC[C@H]3C(=O)N[C@@H](CCCN=C(N)N)C(=O)NCC(N)=O)NC(=O)[C@H](CC(N)=O)NC(=O)[C@H](C(C)C)NC(=O)[C@H](Cc3ccccc3)NC2=O)cc1 (Y(Et)FVNCPRG-NH2; linker N-5 via X1) [listing 1 of 2 here] | 1.9 nM/kg | 6.92 nM | 26.9 nM |  |
| CCOc1ccc(C[C@@H]2NC(=O)CC3(CCCCC3)SSC[C@@H](C(=O)N3CCC[C@H]3C(=O)N[C@@H](CCCN=C(N)N)C(=O)NCC(N)=O)NC(=O)[C@H](CC(N)=O)NC(=O)[C@H](C(C)C)NC(=O)[C@H](Cc3ccccc3)NC2=O)cc1 (Y(Et)FVNCPRG-NH2; linker N-5 via X1) [listing 2 of 2 here] |  |  |  | 0.49 nM/kg |
| CCOc1ccc(C[C@@H]2NC(=O)CC3(CCCCC3)SSC[C@@H](C(=O)N3CCC[C@H]3C(=O)N[C@H](CCCN=C(N)N)C(=O)NCC(N)=O)NC(=O)[C@H](CC(N)=O)NC(=O)[C@H](C(C)C)NC(=O)[C@H](Cc3ccccc3)NC2=O)cc1 (Y(Et)FVNCP[dR]G-NH2; linker N-5 via X1) [listing 1 of 2 here] | 5.7 nM/kg |  | 79.4 nM |  |
| CCOc1ccc(C[C@@H]2NC(=O)CC3(CCCCC3)SSC[C@@H](C(=O)N3CCC[C@H]3C(=O)N[C@H](CCCN=C(N)N)C(=O)NCC(N)=O)NC(=O)[C@H](CC(N)=O)NC(=O)[C@H](C(C)C)NC(=O)[C@H](Cc3ccccc3)NC2=O)cc1 (Y(Et)FVNCP[dR]G-NH2; linker N-5 via X1) [listing 2 of 2 here] |  |  |  | 0.34 nM/kg |
| COc1ccc(C[C@@H]2NC(=O)CC3(CCCCC3)SSC[C@@H](C(=O)N3CCC[C@H]3C(=O)N[C@@H](CCCN=C(N)N)C(=O)NCC(N)=O)NC(=O)[C@H](CC(N)=O)NC(=O)[C@H](C(C)C)NC(=O)[C@H](Cc3ccccc3)NC2=O)cc1 (Y(Me)FVNCPRG-NH2; linker N-5 via X1) [listing 1 of 2 here] | 3.1 nM/kg | 4.79 nM | 44.7 nM |  |
| COc1ccc(C[C@@H]2NC(=O)CC3(CCCCC3)SSC[C@@H](C(=O)N3CCC[C@H]3C(=O)N[C@@H](CCCN=C(N)N)C(=O)NCC(N)=O)NC(=O)[C@H](CC(N)=O)NC(=O)[C@H](C(C)C)NC(=O)[C@H](Cc3ccccc3)NC2=O)cc1 (Y(Me)FVNCPRG-NH2; linker N-5 via X1) [listing 2 of 2 here] |  |  |  | 0.29 nM/kg |
| COc1ccc(C[C@@H]2NC(=O)CC3(CCCCC3)SSC[C@@H](C(=O)N3CCC[C@H]3C(=O)N[C@H](CCCN=C(N)N)C(=O)NCC(N)=O)NC(=O)[C@H](CC(N)=O)NC(=O)[C@H](C(C)C)NC(=O)[C@H](Cc3ccccc3)NC2=O)cc1 (Y(Me)FVNCP[dR]G-NH2; linker N-5 via X1) [listing 1 of 2 here] | 15 nM/kg | 3.63 nM | 209 nM |  |
| COc1ccc(C[C@@H]2NC(=O)CC3(CCCCC3)SSC[C@@H](C(=O)N3CCC[C@H]3C(=O)N[C@H](CCCN=C(N)N)C(=O)NCC(N)=O)NC(=O)[C@H](CC(N)=O)NC(=O)[C@H](C(C)C)NC(=O)[C@H](Cc3ccccc3)NC2=O)cc1 (Y(Me)FVNCP[dR]G-NH2; linker N-5 via X1) [listing 2 of 2 here] |  |  |  | 0.28 nM/kg |
| CC(C)Oc1ccc(C[C@@H]2NC(=O)CC3(CCCCC3)SSC[C@@H](C(=O)N3CCC[C@H]3C(=O)N[C@@H](CCCN=C(N)N)C(=O)NCC(N)=O)NC(=O)[C@H](CC(N)=O)NC(=O)[C@H](C(C)C)NC(=O)[C@H](Cc3ccccc3)NC2=O)cc1 (Y(iPr)FVNCPRG-NH2; linker N-5 via X1) [listing 1 of 2 here] | 3.6 nM/kg | 4.37 nM | 47.9 nM |  |
| CC(C)Oc1ccc(C[C@@H]2NC(=O)CC3(CCCCC3)SSC[C@@H](C(=O)N3CCC[C@H]3C(=O)N[C@@H](CCCN=C(N)N)C(=O)NCC(N)=O)NC(=O)[C@H](CC(N)=O)NC(=O)[C@H](C(C)C)NC(=O)[C@H](Cc3ccccc3)NC2=O)cc1 (Y(iPr)FVNCPRG-NH2; linker N-5 via X1) [listing 2 of 2 here] |  |  |  | 0.31 nM/kg |
| CC(C)Oc1ccc(C[C@@H]2NC(=O)CC3(CCCCC3)SSC[C@@H](C(=O)N3CCC[C@H]3C(=O)N[C@H](CCCN=C(N)N)C(=O)NCC(N)=O)NC(=O)[C@H](CC(N)=O)NC(=O)[C@H](C(C)C)NC(=O)[C@H](Cc3ccccc3)NC2=O)cc1 (Y(iPr)FVNCP[dR]G-NH2; linker N-5 via X1) [listing 1 of 2 here] | 8.5 nM/kg | 3.89 nM | 132 nM |  |
| CC(C)Oc1ccc(C[C@@H]2NC(=O)CC3(CCCCC3)SSC[C@@H](C(=O)N3CCC[C@H]3C(=O)N[C@H](CCCN=C(N)N)C(=O)NCC(N)=O)NC(=O)[C@H](CC(N)=O)NC(=O)[C@H](C(C)C)NC(=O)[C@H](Cc3ccccc3)NC2=O)cc1 (Y(iPr)FVNCP[dR]G-NH2; linker N-5 via X1) [listing 2 of 2 here] |  |  |  | 0.28 nM/kg |
